Measurements as given in patent publication US12404242B2, “Compositions and methods for making and using small molecules in the treatment of cancer” (Reglagene, Inc., priority 2021, dated 2025).

How the values were obtained:
Type in all cases: cell-based, human
Details in all cases: 72 hours of treatment
[1] = system: LNCaP cells; experiment: Cell viability (AlamarBlue), LNCaP prostate cancer cells; parameters: key to EC50 (μM) in LNCaP cells: Inactive: less than 50% inhibition at the highest concentration tested at 50 μM
Procedure: (§1) In another exemplary method, half maximal effective concentration (EC50) was determined for some compounds and their isomers as disclosed herein in a variety of human cancer cell lines. In brief, cells from two prostate cancer cell lines (LNCaP, 22RV1), one glioblastoma cell line (U87), one breast cancer cell line (MCF7), a glioma cell line (LN18), a normal prostate cell line (RWPE1), and a glioblastoma cell line (T98G) were plated in a multi-well plate. After 24 hours, one of the compounds herein was added to the well at increasing concentrations. After 72 hours of treatment, cell viability was assessed using AlamrBlue® (Invitrogen) and fluorescence was read using the CLARIOstar Plus Multilabel Plate Reader (BMG Labtech). Samples were normalized to no treatment controls. EC50 values were determined using GraphPad Prism.

[2] = system: 22RV1 cells; experiment: Cell viability (AlamarBlue), 22RV1 prostate cancer cells; parameters: key to EC50 (μM) in 22RV1 cells: Inactive: less than 50% inhibition at the highest concentration tested at 50 μM
Procedure: as §1

[3] = system: U87 cells; experiment: Cell viability (AlamarBlue), U87 glioblastoma cells; parameters: key to EC50 (μM) in U87 cells: Inactive: less than 50% inhibition at the highest concentration tested at 50 μM
Procedure: as §1

Structure (SMILES)	EC50 (μM) in LNCaP cells [1]	EC50 (μM) in 22RV1 cells [2]	EC50 (μM) in U87 cells [3]	EC50 ([1]; Homo sapiens, LNCaP, 72 h) [µM]	EC50 ([2]; Homo sapiens, 22Rv1, 72 h) [µM]	EC50 ([3]; Homo sapiens, U-87 MG, 72 h) [µM]	other results
COC1(C(=O)NC(=O)Nc2ccc(Oc3nccs3)c(C)c2)CC1 [Compound 68, 1-methoxy-N-((3-methyl-4-(thiazol-2-yloxy)phenyl)carbamoyl)cyclopropane-1-carboxamide]	Inactive	Inactive	Inactive				
O=C(NC(=O)C1CCC(OCC2CC2)CC1)Nc1ccc(Oc2ncc(Cl)cn2)c(F)c1 (stereo not drawn) [Compound 37, N-((4-((5-chloropyrimidin-2-yl)oxy)-3-fluorophenyl)carbamoyl)-4-(cyclopropylmethoxy)cyclohexane-1-carboxamide]	Inactive	Inactive	Inactive				
COC1CCC(C(=O)NC(=O)Nc2ccc(Oc3ncc(C)cn3)c(C)c2)CC1 (single isomer, unassigned) [Compound 27B, 4-methoxy-N-((3-methyl-4-((5-methylpyrimidin-2-yl)oxy)phenyl)carbamoyl)cyclohexane-1-carboxamide]							EC50 [1]: 9.8 µM; EC50 [2]: 25 µM; EC50 [3]: 23.3 µM
COC1CCC(C(=O)NC(=O)Nc2ccc(Oc3ccc(C(C)C)cn3)c(C)c2)CC1 (single isomer, unassigned) [Compound 34B, N-((4-((5-isopropylpyridin-2-yl)oxy)-3-methylphenyl)carbamoyl)-4-methoxycyclohexane-1-carboxamide]	Inactive	Inactive	Inactive				
COC1(C(=O)NC(=O)Nc2ccc(Oc3ncccn3)c(C)c2)CC1 [Compound 69, 1-methoxy-N-((3-methyl-4-(pyrimidin-2-yloxy)phenyl)carbamoyl)cyclopropane-1-carboxamide]	Inactive	Inactive	Inactive				
COC1CCC(C(=O)NC(=O)Nc2ccc(Oc3ncc(C(F)(F)F)cn3)c(C)c2)CC1 (stereo not drawn) [Compound 29, 1-(4-methoxycyclohexanecarbonyl)-3-(3-methyl-4-{[5-(trifluoromethyl)pyrimidin-2-yl)oxy}phenyl)urea]				6.5	4.7	5.3	
COC1CC(C(=O)NC(=O)Nc2ccc(Oc3cncnc3)c(C)c2)C1 (stereo not drawn) [Compound 43, 3-methoxy-N-((3-methyl-4-(pyrimidin-5-yloxy)phenyl)carbamoyl)cyclobutane-1-carboxamide]				21.8	39	34	
COC1CCC(C(=O)NC(=O)Nc2ccc(Oc3ccc(C)cn3)c(C)c2)CC1 (stereo not drawn) [Compound 32, 1-(4-methoxycyclohexanecarbonyl)-3-{3-methyl-4-[(5-methylpyridin-2-yl)oxy]phenyl}urea]			Inactive	34	35		
COC1CCC(C(=O)NC(=O)Nc2ccc(Oc3ccc(C(F)(F)F)cn3)c(C)c2)CC1 (stereo not drawn) [Compound 33, 4-methoxy-N-((3-methyl-4-((5-(trifluoromethyl)pyridin-2-yl)oxy)phenyl)carbamoyl)cyclohexane-1-carboxamide]	Inactive	Inactive	Inactive				
COC1CCC(C(=O)NC(=O)Nc2ccc(Oc3cncnc3)c(C)c2)CC1 (stereo not drawn) [Compound 42, 4-methoxy-N-((3-methyl-4-(pyrimidin-5-yloxy)phenyl)carbamoyl)cyclohexane-1-carboxamide]				19.8	37	41.5	
COC1CCC(C(=O)NC(=O)Nc2ccc(Oc3ncc(C)cn3)c(C)c2)CC1 (single isomer, unassigned) [Compound 27A, 4-methoxy-N-((3-methyl-4-((5-methylpyrimidin-2-yl)oxy)phenyl)carbamoyl)cyclohexane-1-carboxamide]							EC50 [1]: 1.3 µM; EC50 [2]: 2.8 µM; EC50 [3]: 2.1 µM
COC1CCC(C(=O)NC(=O)Nc2ccc(Oc3cnc(N4CC5(COC5)C4)nc3)c(C)c2)CC1 (stereo not drawn) [Compound 51, N-((4-((2-(2-oxa-6-azaspiro[3.3]heptan-6-yl)pyrimidin-5-yl)oxy)-3-methylphenyl)carbamoyl)-4-methoxycyclohexanecarboxamide]				11.1	20	29	
COC1CCC(C(=O)NC(=O)Nc2ccc(Oc3ccc(C(C)C)cn3)c(C)c2)CC1 (single isomer, unassigned) [Compound 34A, N-((4-((5-isopropylpyridin-2-yl)oxy)-3-methylphenyl)carbamoyl)-4-methoxycyclohexane-1-carboxamide]				1.2	5.9	5.5	
COC1CC(C(=O)NC(=O)Nc2ccc(Oc3cnc(N4CCN(C)CC4)nc3)c(C)c2)C1 (stereo not drawn) [Compound 35, 3-methoxy-N-((3-methyl-4-((2-(4-methylpiperazin-1-yl)pyrimidin-5-yl)oxy)phenyl)carbamoyl)cyclobutane-1-carboxamide]	Inactive	Inactive				49	
COC1CC(C(=O)NC(=O)Nc2ccc(Oc3cnc(N4CC5(COC5)C4)nc3)c(C)c2)C1 (stereo not drawn) [Compound 52, -((4-((2-(2-oxa-6-azaspiro[3.3]heptan-6-yl)pyrimidin-5-yl)oxy)-3-methylphenyl)carbamoyl)-3-methoxycyclobutanecarboxamide]			Inactive	25.3	36		
Cc1cc(NC(=O)NC(=O)C2CCC(OCC3CC3)CC2)ccc1Oc1ncc(Cl)cn1 (stereo not drawn) [Compound 38, N-((4-((5-chloropyrimidin-2-yl)oxy)-3-methylphenyl)carbamoyl)-4-(cyclopropylmethoxy)cyclohexane-1-carboxamide]	Inactive	Inactive	Inactive				
COCCOC1CCC(C(=O)NC(=O)Nc2ccc(Oc3ncc(Cl)cn3)c(F)c2)CC1 (stereo not drawn) [Compound 54, N-((4-((5-chloropyrimidin-2-yl)oxy)-3-fluorophenyl)carbamoyl)-4-(2-methoxyethoxy)cyclohexane-1-carboxamide]	Inactive	Inactive	Inactive				
COC1CC(C(=O)NC(=O)Nc2ccc(Oc3ncc(C(F)(F)F)s3)c(C)c2)C1 (stereo not drawn) [Compound 61, 3-methoxy-N-((3-methyl-4-((5-(trifluoromethyl)thiazol-2-yl)oxy)phenyl)carbamoyl)cyclobutane-1-carboxamide]				0.93	1.6	0.35	
COC1CCC(C(=O)NC(=O)Nc2ccc(Oc3cnc(N4CCN(C)CC4)nc3)c(C)c2)CC1 (stereo not drawn) [Compound 36, 4-methoxy-N-((3-methyl-4-((2-(4-methylpiperazin-1-yl)pyrimidin-5-yl)oxy)phenyl)carbamoyl)cyclohexane-1-carboxamide]				34	34	31	
Cc1cc(NC(=O)NC(=O)C2CC(OCC3CC3)C2)ccc1Oc1nccs1 (stereo not drawn) [Compound 39, 3-(cyclopropylmethoxy)-N-((3-methyl-4-(thiazol-2-yloxy)phenyl)carbamoyl)cyclobutane-1-carboxamide]	Inactive	Inactive	Inactive				
